Laboratory results reported in patent publication US20100004333A1, “COMPOSITIONS AND METHODS FOR TREATING CARDIOVASCULAR DISORDERS” (priority 2004, published 2010).
Where two headings read alike, the source gives them in different places.

Columns and labels:
[1] = system: New Zealand White rabbits; assay: Rabbit aortic balloon-injury model: intimal hyperplasia; assay type: in vivo; details: for Intimal thickening / intima-to-media ratio after aortic balloon injury: 1% probucol, 0.02% DTBP, 0.02% BP, FIG. 13a, b; for Plasma total cholesterol concentration: rabbits, FIG. 13e
Procedure: (§1) Rabbit aortic balloon-injury model. Four groups of male New Zealand White rabbits (1.8-2.2 kg, Merunga Farm, Coffs Harbour, Australia), matched for body weight and baseline plasma cholesterol, were fed 100 g per day of normal chow±1% probucol, 0.02% DTBP, or 0.02% BP (wt/wt) for up to nine weeks. Aortic balloon-injury (ABI) was carried out at the end of week three, resulting in complete endothelial denudation. Harvesting of aortas was done after a further 6 weeks (n=6 per group). Aortic lesion assessment was carried out at the 3rd pair of lumber arteries in NZW rabbits as described in Circulation 2003, 107:2031-2036. Statistics. Data are expressed as mean±SEM. One-way ANOVA and the student-Newman-Keul's test were used to evaluate differences between groups, with P<0.05 considered significant.
Materials and methods were as described in Examples 6 and 7, with the following addition. DTBP-s and STBP were synthesized as described in Example 10. A total of 48 New Zealand White rabbits (1.8-2.2 kg) were used for this example. Rabbits were fed normal chow (100 g/day) without (Ctrl, n=12) or with 0.02% DTBP (wt/wt, n=6), 0.02% STBP (wt/wt, n=7), 0.02% DTBP-s (wt/wt, n=11) or 0.1% DTBP-s (wt/wt, n=7) for 9 weeks. Aortic balloon-injury was carried out at the end of week three.

[2] = design: species or system rabbits; details: rabbit, in vivo
Procedure: as §1
To control for probucol's cholesterol-lowering effect, the animals were matched for baseline plasma cholesterol, and fed them a limited amount (100 g/day) of standard diet±the respective drug.

[3] = system: New Zealand White rabbits; assay: Re-endothelialization and vascular reactivity after aortic balloon injury in rabbits; assay type: in vivo; details: for Endothelium-dependent relaxation (acetylcholine) / Tissue content of cGMP in response to acetylcholine: aortic rings six weeks after injury; for Endothelium-dependent relaxation (acetylcholine): FIG. 15c; for Tissue content of cGMP in response to acetylcholine: FIG. 15d; for Regeneration of endothelium (length covered by CD31+ cells) / Intima-to-media ratio at CD31-positive sites: six weeks after injury; for Regeneration of endothelium (length covered by CD31+ cells): FIG. 15b; for Intima-to-media ratio at CD31-positive sites: not shown
[4] = system: New Zealand White rabbits; assay: Apoptosis (TUNEL) and proliferation (PCNA) of vascular cells after aortic balloon injury in rabbits; assay type: in vivo; details: for Cell proliferation (PCNA+ cells): FIG. 16e; for Apoptosis (TUNEL+ cells): FIG. 16d
Description: Materials and methods were as described in Example 6, except that for some experiments, aortas were also harvested 4 days (n=8 per group) after balloon injury. Sections immediately adjacent sections to those used for lesion assessment were employed for immunohistochemistry, using CD31 (endothelium, dilution 1:50, DAKO), Mac-3 (macrophages, dilution 1:200, DAKO), PCNA (cell proliferation, dilution 1:500, DAKO) and anti-rat HO-1 monoclonal antibody (dilution 1:50, Santa Cruz) with avidin-biotin-horseradish peroxidase for signal detection (Vectorstain Elite ABC Kit, Vector Laboratories). Apoptosis was assessed using the TUNEL assay kit (Roche) according to the manufacture's instructions. Digital images were taken for quantitative morphometric analysis. Intimal, medial and Mac-3^+ areas were determined using Adobe Photoshop V6.0 by tracing. Re-endothelialization was determined in longitudinal sections as the distance of CD31^+ cells from the branch orifice using Scion Image Software (Scion, ML, USA). Total cell profiles, TUNEL^+ and PCNA^+ cells were counted manually at high magnification (40× objective).

[5] = system: New Zealand White rabbits; assay: Rabbit aortic balloon-injury model with heme oxygenase blocked by tin protoporphyrin; assay type: in vivo; details: plus tin protoporphyrin 7.5 mg/kg i.p. every other day; for Ability to inhibit intimal thickening when heme oxygenase is blocked: nine weeks, FIG. 19a; for Ability to promote re-endothelialization when heme oxygenase is blocked: FIG. 19b; for Ability to inhibit vascular smooth muscle cell proliferation when heme oxygenase is blocked: FIG. 19c
Procedure: Inhibition of heme oxygenase activity. Three groups of male New Zealand White rabbits (n=6 per group) that were fed 100 g per day of normal chow±1% probucol or 0.02% DTBP (wt/wt) received intraperitoneal injection of tin protoporphyrin (SnPP, Frontier Scientific, 7.5 mg/kg) every other day as described in American Journal of Physiology, Heart and Circulatory Physiology 2000; 278:H623-H632 for the entire nine week duration of the experiment, with balloon injury at the end of week three and lesion assessment after a further six weeks.

[6] = day 4 after aortic balloon injury
[7] = day 42 after aortic balloon injury

Row | Structure (SMILES) | Intimal thickening / intima-to-media ratio after aortic balloon injury ([1]; 6 weeks after ABI) | Plasma total cholesterol concentration [1] | Total drug in the vessel wall [2] | Endothelium-dependent relaxation (acetylcholine) [3] | Tissue content of cGMP in response to acetylcholine [3] | Regeneration of endothelium (length covered by CD31+ cells) [3] | Intima-to-media ratio at CD31-positive sites [3] | Cell proliferation (PCNA+ cells) ([4]; day 4 after ABI) | Apoptosis (TUNEL+ cells) [4, 6] | Cell proliferation (PCNA+ cells) ([4]; day 42 after ABI) | Apoptosis (TUNEL+ cells) [4, 7] | Ability to inhibit intimal thickening when heme oxygenase is blocked [5] | Ability to promote re-endothelialization when heme oxygenase is blocked [5] | Ability to inhibit vascular smooth muscle cell proliferation when heme oxygenase is blocked [5] | further results
1 | CC(C)(Sc1cc(C(C)(C)C)c(O)c(C(C)(C)C)c1)Sc1cc(C(C)(C)C)c(O)c(C(C)(C)C)c1 [probucol] | Inhibit Intimal Thickening | significantly reduced | 663±114 pmol total drug per mg protein | enhanced | enhanced | significantly enhanced | significantly decreased | not day 4 | significantly enhanced apoptosis | significant decrease in cell proliferation | not at day 42 | completely prevented | completely prevented | completely prevented | 
2 | CC(C)(C)c1cc(-c2cc(C(C)(C)C)c(O)c(C(C)(C)C)c2)cc(C(C)(C)C)c1O [BP, 3,3′,5,5′-tetra-tert-butyl-4,4′-bisphenol] | lacked protective activity | significantly reduced | 614±258 pmol total drug per mg protein |  |  |  |  |  | not BP |  |  |  |  |  | 
3 | CC(C)(C)c1cc(SSc2cc(C(C)(C)C)c(O)c(C(C)(C)C)c2)cc(C(C)(C)C)c1O [DTBP, 4,4′-dithiobis(2,6-di-tert-butyl-phenol)] | significantly decreasing | without effect |  | enhanced | enhanced | significantly enhanced | significantly decreased | not day 4 | significantly enhanced apoptosis | significant decrease in cell proliferation | not at day 42 | completely prevented | completely prevented | completely prevented | Protection against balloon injury-induced intimal hyperplasia ([1]; 0.02% wt/wt in chow, 9 weeks, ABI at end of week three, FIG. 21): significant protection; Vessel content of non-oxidized lipid ([1]; 6 weeks after ABI, FIG. 13c): without altering; Vessel content of oxidized lipid ([1]; 6 weeks after ABI, FIG. 13d): without altering; Protection against balloon injury-induced intimal hyperplasia, dependence on concentration ([1]; I/M ratio 6 weeks after ABI, FIG. 14): in a concentration-dependent manner; Activity on a molar base relative to probucol ([1]; from relative aortic drug concentrations and in vivo protection): more active than probucol; Total drug in the vessel wall ([2]; male, New Zealand White, 9 weeks): 235±64 pmol total drug per mg protein; Bioavailability relative to probucol [2]: greater bioavailability than probucol
